In paper PMC9820430, “New Affordable Methods for Large-Scale Isolation of Major Olive Secoiridoids and Systematic Comparative Study of Their Antiproliferative/Cytotoxic Effect on Multiple Cancer Cell Lines of Different Cancer Origins” (International Journal of Molecular Sciences, 2022):
Read-outs that look alike come from different tables or passages of the source. Marks after values point to notes of the source that are not given here.

Experiments:
[1] = test system: MCF-7; conditions: cited from earlier work
[2] = test system: HT-29; assay: Annexin V-FITC/PI staining, flow cytometry; format: cell-based, human; conditions: 48 h at EC50
Text: (§1) To discern whether cell death triggered by OOPs treatment occurred via apoptosis or necrosis under the experimental conditions applied in this study, live cells treated with OOPs were stained simultaneously with FITC-conjugated annexin V and propidium iodide (PI). Annexin V binds to phosphatidylserine (PS) translocating from the inner to the outer leaflet of the plasma membrane in apoptotic cells. Therefore, annexin V-FITC binding to PS labels live apoptotic cells with green FL. […] PS exposure to the extracellular space and cell membrane permeability were analyzed by flow cytometry as described in detail in the Experimental Section. […] OOP concentrations used were equal to the EC50 values for each cell line (Table 1). annexin V and PI staining discriminated between early- (i.e., annexin V +ve and PI −ve) and late-apoptotic cells (i.e., annexin V +ve and PI +ve), as well as between necrotic (i.e., annexin V −ve and PI +ve) and live (i.e., annexin V −ve and PI −ve) cells (Table 4).
(§2) Apoptosis and necrosis were assessed by double staining with annexin V-FITC and propidium iodide (PI) and were analyzed using flow cytometry (FACS). Human cancer cells were plated in 96-well culture plates in 100 μL of complete medium and were allowed to adhere overnight (~16 h). […] In detail, 0.5 μL of a 500× stock of each tested compound in DMSO was added directly into each well in a final volume of 250 μL culture medium and was gently mixed by pipetting. Control wells were prepared under the same experimental conditions by adding only DMSO at a final concentration of 0.2% (v/v). At the end of the treatment, the cells were detached by trypsinization, media with serum was added to deactivate trypsin, and the cells from three wells were pooled together by centrifugation (1000 rpm, 5 min, 24 °C), washed with cold PBS, centrifuged (1000 rpm, 5 min, 24 °C) and finally resuspended in cold 1× annexin V binding buffer (10 mM HEPES pH = 7.4, 150 mM NaCl, 2.5 mM CaCl2) at a density of 10^4 cells/mL. Staining was performed by incubating with annexin V- FITC and propidium iodide (PI; BioLegend) for 15 min at room temperature in the dark, according to the manufacturer’s instructions. Negative control samples consisted of cells treated only with 0.2% (v/v) DMSO for the same incubation time length (i.e., 48 h). Cells treated with Triton X-100 (0.25% (v/v)) for 5 min at 4 °C were used as controls for 100% permeabilization of the plasma membrane and maximum fluorescence staining with PI (positive control for cells in necrosis). The presence of live, apoptotic or necrotic cells was assessed with the FACS Calibur (Becton–Dickinson, San Jose, CA, USA). In total, 10,000 cells were analyzed per measurement and the acquired data were analyzed using the FlowJo V.10.0.8 software (Tree Star Inc., Ashland, OR, USA). Each condition was analyzed in duplicate, and the results presented are from 2 or 3 independent experiments.
(§3) Data showing OOPs’ apoptotic/necrotic effect were derived from two or three independent experiments and were presented as the means ± SE of the percentage (%) of both annexin V-positive cells (early apoptotic events) and % of annexin V/PI positive cells (late apoptotic events) over the whole cell population normalized to the corresponding events of the control cells, as determined using the FlowJo software.

[3] = test system: A2058; assay: Annexin V-FITC/PI staining, flow cytometry; format: cell-based, human; conditions: 48 h at EC50
Text: as §1, §2, §3

[4] = test system: MCF-7; assay: Annexin V-FITC/PI staining, flow cytometry; format: cell-based, human; conditions: 48 h at EC50
Text: as §1, §2, §3

[5] = test system: three breast cancer cell lines (MDA-MB-231, SK-BR-3 and MCF-7); assay: ATP-based luminescence cell viability assay, breast panel; set-up: species or system human; conditions: Homo sapiens; MDA-MB-231, SK-BR-3 and MCF-7; 72 h
Experimental: The antiproliferative/cytotoxic effects of the selected OOPs on each cell line were assessed by measuring the cellular ATP levels after 72 h treatments using an ATP-based luminescence assay. This assay, initially developed as a tumor chemosensitivity assay, has shown considerable promise as a general in vitro toxicity assay due to its high sensitivity that allows the detection of a small number of cells. Consequently, it can be applied to both cancer cell lines and primary tissue cells. […] The EC50 values were calculated by nonlinear regression (curve fit) using a sigmoidal dose–response equation (Figure 2A and Figure S2).
The calculated EC50 values ranged between 9.1–100 μΜ (Table 1). The bioactivity of the oleocanthalic acid (7), studied here for the first time for its antiproliferative/cytotoxic activity, was initially evaluated systematically in the three breast cancer cell lines using a concentration range of 10–100 μM. In all cases, the viability measured was ≥80%, predicting EC50 values > 100 μΜ. […] For this reason, oleocanthalic acid (7) was excluded from the rest of this study.
The OOPs tested in this study were first dissolved in an appropriate DMSO volume such as to prepare a final stock solution of 50 mM, which was further used to prepare various compound concentrations in DMSO-based solutions. The final DMSO concentration in the cell culture was maintained constant in all treated groups of any given experiment and never exceeded the value of 0.2% (v/v). For the treatment experiments, cells were plated in 96-well culture plates, in 100 μL of complete medium at a seeding density of 5000–10,000 cells/well—depending on cells’ size and doubling time—and were allowed to adhere overnight (~16 h). The next day, 150 μL of complete medium was added to each well and the cells were treated with various concentrations of OOPs. Each concentration was tested in triplicate and was repeated 2–3 times. To prepare the final concentration solutions, 0.5 μL of a 500× stock of each tested compound in DMSO was added directly into each well in a final volume of 250 μL culture medium and was gently mixed by pipetting. Control wells were prepared under the same experimental conditions by adding only DMSO at a final concentration of 0.2% (v/v). Compounds were not renewed during the entire period of cell exposure. All cells were cultured at 37 °C in a 5% (v/v) CO2 for 24, 48 or 72 h.
Briefly, after the treatment with OOPs, the adapted medium was removed from the dish wells and the cells were washed twice with medium without FBS. Then, the C-lysis (LT27-076) was diluted in PBS (1:2) and a volume of 50 μL was added to each well. […] Cell viability was quantified by measuring luminescence using a multi-mode microplate reader Safire^2 Tecan (software Magellan V6.00 STD.2PC WIN.20000/XP).

[6] = test system: A375 cells; set-up: method as in PMID 35630786; conditions: 72 h treatment; cited from earlier work

SMILES | EC50 ([1]; five days of treatment, ref Menendez et al. (2007) 17, read-out: concentration reducing cell viability by 50%) | % Cell Viability [2] | Early Apoptotic (% ± S.D.) [2] | Late Apoptotic (% ± S.D.) [2] | Total Apoptotic (%) [2] | % Cell Viability [3] | Early Apoptotic (% ± S.D.) [3] | Late Apoptotic (% ± S.D.) [3] | Total Apoptotic (%) [3] | % Cell Viability [4] | Early Apoptotic (% ± S.D.) [4] | Late Apoptotic (% ± S.D.) [4] | Total Apoptotic (%) [4] | EC50 [5] | EC50 [6] | EC50 ([1]; 48 or 72 h, different culture conditions, read-out: EC50)
COC(=O)C1=COC(C)[C@@H](C=O)[C@@H]1CC(=O)OCCc1ccc(O)c(O)c1 (mixture of isomers) [3a,b, oleuropein aglycone] | > 100 µM | 41 ^a % | 6.95 ± 1.5% | 1.55 ± 1.5% | 8.50 ± 1.8 ^a % | 24% | 11.88 ± 2.3% | 7.26 ± 1.6% | 19.14 ± 0.7% | 69% | 7.03 ± 0.3% | 1.29 ± 0.8% | 8.31 ± 1.2% | 17.7 to 32.2 µM |  | 
C/C=C(/C=O)[C@@H](CC=O)CC(=O)OCCc1ccc(O)c(O)c1 [compound 2, oleacein] |  |  |  |  |  |  |  |  |  |  |  |  |  |  | 113 ± 4.9 µM | 
C/C=C(/C=O)[C@@H](CC=O)CC(=O)OCCc1ccc(O)cc1 [compound 1, oleocanthal] |  | 66% | 5.53 ± 1.1% | 6.10 ± 4.3% |  | 36% | 5.05 ± 2.7% | 2.35 ± 1.7% | 7.40 ± 4.4% | 65% | 6.30 ± 2.3% | 3.77 ± 0.8% | 10.07 ± 3.1% | 10.5 to 24.6 µM | 67.5 ± 1.9 µM | 18 to 40 µM
